In patent publication US20040018582A1, “Genes and gene products that confer susceptibility to vancomycin derivative antibiotics and methods and assays for identifying bifunctional glycopeptide antibiotics using same” (priority 2001, published 2004):
Converted amounts (≈) assume the structure as drawn.

Columns and labels:
Type in all cases: cell-based, Escherichia coli
[1] = tested on: mutant strains BE101, BE102, BE103 compared to wild-type BE100; test: Comparison of antibiotic effectiveness in mutant (yfgL) strains versus wild-type strain; settings: for resistance or sensitivity of the mutants: mutants vs parent strain BE100, by MIC
Procedure: The present inventions are directed to methods of identifying a compound having transglycosylase inhibitory activity. The method includes contacting the compound with cells having the wild type yfgL gene and then measuring the antibiotic effectiveness and contacting the compound with cells having the mutant yfgL gene and measuring the antibiotic effectiveness the compound.
(§1) MICs were determined against strains grown in LB medium in a standard microdilution format.
Some antibiotics, for example the β-lactams, show a decrease in their bactericidal effectiveness against slow-growing cells. E. Tuomanen et al., J. Gen. Microbiol. 132, 1297 (1986). […] R. Kerns et al., J. Am. Chem. Soc. 122, 12608 (2000).
Examples of transpeptidase inhibitors include, but are not limited to, ampicillin, penicillin or cefoxitin (p-lactams). Compounds that inhibit cytoplasmic steps of peptidoglycan synthesis include, but are not limited to, fosfomycin and cycloserine.

mutant strain BE101 [2] = test: Time-kill curves at MIC; settings: mutant BE101, vancomycin […]
Procedure: (§2) FIGS. 1C and 1D represent time-kill curves of wild-type BE100 (C) and mutant strain BE101 (D) in the presence of antibiotics at their MICs. A standard microdilution assay was performed in LB. Samples were removed and serial dilutions were plated onto antibiotic-free agar after 15, 30, 60, 120 and 240 minutes of exposure to each antibiotic.

wild-type BE100 = test: Time-kill curves at MIC; settings: wild-type BE100, vancomycin 0.8 μg/ml
Procedure: as §2

mutant strain BE101 [3] = test: MIC, standard microdilution in LB medium; settings: 35° C., 22 hours
Procedure: (§3) The imp mutation alters the permeability of the outer membrane and confers sensitivity to vancomycin and its carbohydrate derivatives as well as to moenomycin. BE100 is an isolate of BAS849 (MC4100 ΔlamB106 imp 4213). B. A. Sampson et al., Genetics 122, 491(1989).
as §1

[4] = tested on: wild-type strain BE100 (E. coli imp); test: MIC, standard microdilution in LB medium; settings: 35° C., 22 hours
Procedure: as §3, §1

mutant strain BE102 = test: MIC, standard microdilution in LB medium; settings: 35° C., 22 hours
Procedure: as §3, §1

mutant strain BE103 = test: MIC, standard microdilution in LB medium; settings: 35° C., 22 hours
Procedure: as §3, §1

Compound: CC[C@H]1OC(=O)[C@H](C)[C@@H](O[C@H]2C[C@@](C)(OC)[C@@H](O)[C@H](C)O2)[C@H](C)[C@@H](O[C@@H]2O[C@H](C)C[C@H](N(C)C)[C@H]2O)[C@](C)(O)C[C@@H](C)C(=O)[C@H](C)[C@@H](O)[C@]1(C)O [erythromycin]
- resistance or sensitivity of the mutants [1]: sensitive

Compound: gentamicin
- resistance or sensitivity of the mutants [1]: sensitive

Compound: CN[C@H](CC(C)C)C(=O)N[C@H]1C(=O)N[C@@H](CC(N)=O)C(=O)N[C@H]2C(=O)N[C@H]3C(=O)N[C@H](C(=O)N[C@H](C(=O)O)c4cc(O)cc(O)c4-c4cc3ccc4O)[C@H](O)c3ccc(c(Cl)c3)Oc3cc2cc(c3O[C@@H]2O[C@H](CO)[C@@H](O)[C@H](O)[C@H]2O[C@H]2C[C@](C)(N)[C@H](O)[C@H](C)O2)Oc2ccc(cc2Cl)[C@H]1O [Vancomycin]
- survival on exposure at MIC (mutant strain BE101 [2]): prevented growth of all the strains but did not kill them
- survival on exposure at MIC (wild-type BE100): prevented growth of all the strains but did not kill them
- minimum inhibitory concentration (MIC) (mutant strain BE101 [3]): 1.6 µg/mL (≈ 1.1 µM)
- minimum inhibitory concentration (MIC) [4]: 0.8 µg/mL (≈ 0.552 µM)
- minimum inhibitory concentration (MIC) (mutant strain BE102): 1.6 µg/mL (≈ 1.1 µM)
- minimum inhibitory concentration (MIC) (mutant strain BE103): 1.6 µg/mL (≈ 1.1 µM)
- resistance or sensitivity of the mutants [1]: did not show any resistance

Compound: CC1(C)S[C@@H]2[C@H](NC(=O)Cc3ccccc3)C(=O)N2[C@H]1C(=O)O [Penicillin G]
- minimum inhibitory concentration (MIC) (mutant strain BE101 [3]): 3.2 µg/mL (≈ 9.57 µM)
- minimum inhibitory concentration (MIC) [4]: 3.2 µg/mL (≈ 9.57 µM)
- minimum inhibitory concentration (MIC) (mutant strain BE102): 1.6 µg/mL (≈ 4.78 µM)
- minimum inhibitory concentration (MIC) (mutant strain BE103): 3.2 µg/mL (≈ 9.57 µM)

Compound: Teicoplanin
- minimum inhibitory concentration (MIC) (mutant strain BE101 [3]): 16 µg/mL
- minimum inhibitory concentration (MIC) [4]: 0.25 µg/mL
- minimum inhibitory concentration (MIC) (mutant strain BE102): 3 µg/mL
- minimum inhibitory concentration (MIC) (mutant strain BE103): 4 µg/mL
- step of peptidoglycan synthesis blocked, found using wild type/mutant yfgL assay [1]: block the transglycosylation step of peptidoglycan synthesis
- resistance or sensitivity of the mutants [1]: resistant

Compound: Desleucyl chlorobiphenyl vancomycin
- minimum inhibitory concentration (MIC) (mutant strain BE101 [3]): >125 µg/mL
- minimum inhibitory concentration (MIC) [4]: 25 µg/mL
- minimum inhibitory concentration (MIC) (mutant strain BE102): >125 µg/mL
- minimum inhibitory concentration (MIC) (mutant strain BE103): >125 µg/mL

Compound: Moenomycin
- minimum inhibitory concentration (MIC) (mutant strain BE101 [3]): 1.6 µg/mL
- minimum inhibitory concentration (MIC) [4]: 0.03 µg/mL
- minimum inhibitory concentration (MIC) (mutant strain BE102): 0.8 µg/mL
- minimum inhibitory concentration (MIC) (mutant strain BE103): 3.2 µg/mL
- times less active in resistant strains compared to the wild-type strain ([1]; all three resistant strains vs wild-type): 27-100 times
